Assay results from patent US8299111B2, “Compounds which modulate the CB2 receptor” (Boehringer Ingelheim International GmbH, priority 2006, dated 2012).

biological target: T1, human CB2R (Homo sapiens, UniProt P34972); assay: CB2R mediated modulation of cAMP synthesis; format: cell-based; conditions: found through the use of the above described assays (binding and cAMP); CHO cells expressing human CB2R, forskolin-stimulated cAMP
T1 construct: host or cells: CHO cells
Description: B. CB2R Mediated Modulation of cAMP Synthesis:
CHO cells expressing human CB2R (Euroscreen) were plated at a density of 5000 cells per well in 384 well plates and incubated overnight at 37° C. After removing the media, the cells were treated with test compounds diluted in stimulation buffer containing 1 mM IBMX, 0.25% BSA and 10 uM Forskolin. The assay was incubated for 30 minutes at 37° C. Cells were lysed and the cAMP concentration was measured using DiscoverX -XS cAMP kit, following the manufacturer's protocol. In this setting, agonists will decrease forskolin induced production of cAMP while inverse agonists will further increase forskolin induced production of cAMP. EC50 of agonists were calculated as follows. The maximal amount of cAMP produced by forskolin compared to the level of cAMP inhibited by 1 uM CP55940 is defined as 100%. The EC50 value of each test compound was determined as the concentration at which 50% of the forskolin-stimulated cAMP synthesis was inhibited. Data was analyzed using a four-parameter logistic model. (Model 205 of XLfit 4.0).

T1 sequence (P34972 whole entry): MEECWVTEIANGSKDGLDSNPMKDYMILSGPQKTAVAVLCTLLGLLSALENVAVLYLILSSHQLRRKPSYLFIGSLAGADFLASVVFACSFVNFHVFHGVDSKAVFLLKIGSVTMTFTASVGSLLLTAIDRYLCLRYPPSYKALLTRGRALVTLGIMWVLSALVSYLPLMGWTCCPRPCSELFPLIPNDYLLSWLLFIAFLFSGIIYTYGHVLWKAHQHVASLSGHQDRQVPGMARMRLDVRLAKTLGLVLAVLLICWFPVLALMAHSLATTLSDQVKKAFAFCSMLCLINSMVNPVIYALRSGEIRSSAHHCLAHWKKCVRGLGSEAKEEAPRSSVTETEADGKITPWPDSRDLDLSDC

SMILES | agonistic activity
COc1ccc(S(=O)(=O)C(C)(C)C(=O)Nc2cc(CC(C)(C)C)no2)cc1 [N-[3-(2,2-dimethylpropyl)isoxazol-5-yl]-2-[(4-methoxyphenyl)sulfonyl]-2-methylpropanamide] | agonistic activity
CC(C)(C(=O)Nc1nc(C2CC2)cs1)S(=O)(=O)c1ccc(Cl)cc1 [2-(4-Chloro-benzenesulfonyl)-N-(4-cyclopropyl-thiazol-2-yl)-2-methyl-propionamide] | agonistic activity
CC(C)(C)c1cc(NC(=O)C(C)(C)S(=O)(=O)c2ccc(C#N)cc2)no1 [N-(5-tert-Butyl-isoxazol-3-yl)-2-(4-cyano-benzenesulfonyl)-2-methyl-propionamide] | agonistic activity
CC(C)(C(=O)Nc1nc2c(s1)CCCC2)S(=O)(=O)c1ccc(Cl)cc1 [2-(4-Chloro-benzenesulfonyl)-2-methyl-N-(4,5,6,7-tetrahydro-benzothiazol-2-yl)-propionamide] | agonistic activity
CC(C)(C)Cc1cc(NC(=O)C(C)(C)S(=O)(=O)c2ccc(S(C)(=O)=O)cc2)on1 [N-[3-(2,2-dimethylpropyl)isoxazol-5-yl]-2-methyl-2-{[4-(methylsulfonyl)phenyl]sulfonyl}propanamide] | agonistic activity
CC(C)(C(=O)Nc1cc2ccccc2cn1)S(=O)(=O)c1ccc(C(F)(F)F)nc1 [N-isoquinolin-3-yl-2-methyl-2-{[6-(trifluoromethyl)pyridin-3-yl]sulfonyl}propanamide] | agonistic activity
CC(C)(C(=O)Nc1nc(C(F)(F)F)cs1)S(=O)(=O)c1ccccc1 [2-Benzenesulfonyl-2-methyl-N-(4-trifluoromethyl-thiazol-2-yl)-propionamide] | agonistic activity
Cn1nc(C(C)(C)C)cc1NC(=O)C(C)(C)S(=O)(=O)c1ccc(Cl)nc1 [N-(5-tert-Butyl-2-methyl-2H-pyrazol-3-yl)-2-(6-chloro-pyridine-3-sulfonyl)-2-methyl-propionamide] | agonistic activity
CC(C)(C(=O)Nc1nc(CN2CCCCC2)cs1)S(=O)(=O)c1ccc(Cl)cc1 [2-(4-Chloro-benzenesulfonyl)-2-methyl-N-(4-piperidin-1-ylmethyl-thiazol-2-yl)-propionamide] | agonistic activity
CC(C)(C(=O)Nc1cc(C(F)(F)F)ccn1)S(=O)(=O)c1ccc(S(C)(=O)=O)cc1 [2-methyl-2-{[4-(methylsulfonyl)phenyl]sulfonyl}-N-[4-(trifluoromethyl)pyridin-2-yl]propanamide] | agonistic activity
CCCc1cc(NC(=O)C(C)(C)S(=O)(=O)c2ccc(Cl)cc2)on1 [2-(4-Chloro-benzenesulfonyl)-2-methyl-N-(3-propyl-isoxazol-5-yl)-propionamide] | agonistic activity
CC(C)(C(=O)Nc1ccc(Oc2ccccc2)nc1)S(=O)(=O)c1ccc(Cl)cc1 [2-(4-Chloro-benzenesulfonyl)-2-methyl-N-(6-phenoxy-pyridin-3-yl)-propionamide] | agonistic activity
Cc1sc(NC(=O)C(C)(C)S(=O)(=O)c2ccc(C(F)(F)F)nc2)nc1-c1ccccc1 [2-methyl-N-(5-methyl-4-phenyl-1,3-thiazol-2-yl)-2-{[6-(trifluoromethyl)pyridin-3-yl]sulfonyl}propanamide] | agonistic activity
CC(C)(C)c1cnc(NC(=O)C(C)(C)S(=O)(=O)c2ccc(Cl)cc2)s1 [N-(5-tert-Butyl-thiazol-2-yl)-2-(4-chloro-benzenesulfonyl)-2-methyl-propionamide] | agonistic activity
CC(C)(C)c1cc(NC(=O)C(C)(C)S(=O)(=O)c2ccc3ccccc3c2)no1 [N-(5-tert-Butyl-isoxazol-3-yl)-2-methyl-2-(naphthalene-2-sulfonyl)-propionamide] | agonistic activity
Cc1nc(NC(=O)C(C)(C)S(=O)(=O)c2ccc(C(F)(F)F)nc2)sc1C(C)(C)C [N-(5-tert-Butyl-4-methyl-thiazol-2-yl)-2-methyl-2-(6-trifluoromethyl-pyridine-3-sulfonyl)-propionamide] | agonistic activity
Cn1nc(-c2ccccc2)cc1NC(=O)C(C)(C)S(=O)(=O)c1ccc(Cl)cc1 [2-(4-Chloro-benzenesulfonyl)-2-methyl-N-(2-methyl-5-phenyl-2H-pyrazol-3-yl)-propionamide] | agonistic activity
Cc1ccc(NC(=O)C(C)(C)S(=O)(=O)c2ccc(Cl)cc2)nc1 [2-(4-Chloro-benzenesulfonyl)-2-methyl-N-(5-methyl-pyridin-2-yl)-propionamide] | agonistic activity
CC(C)(C)c1cccc(NC(=O)C(C)(C)S(=O)(=O)c2ccc(Cl)cc2F)c1 [N-(3-tert-butylphenyl)-2-[(4-chloro-2-fluorophenyl)sulfonyl]-2-methylpropanamide] | agonistic activity
CC(C)(C(=O)Nc1ccc2ccccc2c1)S(=O)(=O)c1ccc(Cl)cc1 [2-(4-Chloro-benzenesulfonyl)-2-methyl-N-naphthalen-2-yl-propionamide] | agonistic activity
CC(C)(C)c1cc(NC(=O)C(C)(C)S(=O)(=O)c2ccc(Cl)cc2F)no1 [N-(5-tert-Butyl-isoxazol-3-yl)-2-(4-chloro-2-fluoro-benzenesulfonyl)-2-methyl-propionamide] | agonistic activity
CC(C)(C(=O)Nc1cc2ccccc2cn1)S(=O)(=O)c1ccc(Cl)cc1F [2-[(4-chloro-2-fluorophenyl)sulfonyl]-N-isoquinolin-3-yl-2-methylpropanamide] | agonistic activity
CC(C)(C)c1csc(NC(=O)C(C)(C)S(=O)(=O)c2ccc(F)cc2)n1 [N-(4-tert-Butyl-thiazol-2-yl)-2-(4-fluoro-benzenesulfonyl)-2-methyl-propionamide] | agonistic activity
Cc1cc(NC(=O)C(C)(C)S(=O)(=O)c2ccc(Cl)cc2)n(-c2ccccc2)n1 [2-(4-Chloro-benzenesulfonyl)-2-methyl-N-(5-methyl-2-phenyl-2H-pyrazol-3-yl)-propionamide] | agonistic activity
CC(C)(C)c1nnc(NC(=O)C(C)(C)S(=O)(=O)c2ccc(Cl)cc2F)s1 [N-(5-tert-butyl-1,3,4-thiadiazol-2-yl)-2-[(4-chloro-2-fluorophenyl)sulfonyl]-2-methylpropanamide] | agonistic activity
Cc1ccc(NC(=O)C(C)(C)S(=O)(=O)c2ccc(C(F)(F)F)nc2)nc1 [2-methyl-N-(5-methylpyridin-2-yl)-2-{[6-(trifluoromethyl)pyridin-3-yl]sulfonyl}propanamide] | agonistic activity
CCCc1cc(NC(=O)C(C)(C)S(=O)(=O)c2ccc(F)cc2F)on1 [2-[(2,4-difluorophenyl)sulfonyl]-2-methyl-N-(3-propylisoxazol-5-yl)propanamide] | agonistic activity
CC(C)(C(=O)Nc1nc(-c2ccc(F)cc2)cs1)S(=O)(=O)c1ccc(Cl)cc1 [2-[(4-chlorophenyl)sulfonyl]-N-[4-(4-fluorophenyl)-1,3-thiazol-2-yl]-2-methylpropanamide] | agonistic activity
CC(C)(C(=O)Nc1ccc(C(F)(F)F)cc1)S(=O)(=O)c1ccc(Cl)cc1 [2-(4-Chloro-benzenesulfonyl)-2-methyl-N-(4-trifluoromethyl-phenyl)-propionamide] | agonistic activity
